In patent US10780067B2, “Endoxifen for local transdermal therapy to the breast” (Northwestern University, priority 2016, dated 2020):
Values belong to the compound of their own block, whether it stands above or below them.

Key:
[1] = Plasma, breast adipose tissue and NAF concentrations of tamoxifen and its metabolites (LC-MS/MS), presurgical trial; assay type: in vivo, human; details: in vivo
Source text: All participants provided informed consent. Baseline assessments included a history and physical, explanation of gel application, completion of the Breast Cancer Prevention Trial Eight Symptom Scale (BESS) questionnaire, collection of a venous blood sample, and collection of nipple aspirate fluid (NAF) from NAF yielders. […] Treatment began within 5 days post-randomization and ended on the day prior to surgical resection. Participants were instructed to apply the gel to the entire skin envelope of each breast each morning, after a shower. Duration of therapy was 6-10 weeks. Compliance was assessed through participant diaries, counts of returned pills and of returned gel canisters. Participants who took at least 80% of the prescribed dose were considered compliant.
Assessments similar to those performed at baseline were repeated on the day prior to, or on the morning of surgery. During surgery, breast adipose tissue from the surgical sample was snap frozen and stored at −80° C. for measurement of tamoxifen and metabolites. The samples were obtained from a location adjacent to the DCIS lesion to provide uniformity between participants undergoing breast conservation and mastectomy. The paraffin block of the core and excision samples were acquired by the recruiting institution and 10 sections from each specimen were submitted to the NU Pathology Core Facility. The sections were cut in batches (with pre- and post-treatment samples in the same batch), shipped cold, and processed for immunohistochemistry within four weeks.
(Z)-tamoxifen, (Z)-NDT, (E) and (Z)-4-OHT, and (Z)-endoxifen were measured by liquid chromatography-tandem mass spectrometry with a turbo ion spray interface operating in positive mode (API 3000; AB SCIEX, Foster City, Calif.). […] For analysis of NAF, samples were collected in a capillary tube and diluted with 200 μL of phosphate buffered saline; 100 μL of the diluted NAF sample was used for analysis. Breast adipose tissue samples, 25 mg, were minced and treated with 125 μL of […] and extracted as described above.
Retention times for (Z)-tamoxifen, (Z)-NDT, (Z)-4-OHT, (E)-4-OHT and (Z)-endoxifen were 7.3, 6.8, 5.1, 4.7 and 4.5 min, respectively. […] In three participants, matched samples were not available: breast adipose tissue was not collected in two, and the plasma sample was missing in one.
Since the fraction of E and Z isoforms of 4-OHT was of particular interest, we used an additional validated method to study plasma concentrations of these metabolites in a different laboratory (Eurofins Medinet, Chantilly, Va.): Plasma from blood samples collected in lithium-heparin tubes was frozen at −20° C., shipped in batches on dry ice to them Eurofins Medinet central laboratory; LC-MS/MS was used for the simultaneous determination of (E) 4-OHT and (Z) 4-OHT, with a lower limit of quantitation (LOQ) of 10 pg/mL and upper LOQ of 10,000 pg/mL. Eurofins Medinet developed and validated them method for BHR Pharma, in accordance with the FDA Guidance on Bioanalytical Method Validation.

MCF-7 xenograft = details: dose of 2-8 mg/kg; cited from earlier work
[2] = alcoholic solution of ENX 0.2 mg/mL with 0.5% oleic acid; cited from earlier work
ERα = target: T1, ERα (Homo sapiens, UniProt P03372); details: cited from earlier work
T1 sequence (P03372 1-595): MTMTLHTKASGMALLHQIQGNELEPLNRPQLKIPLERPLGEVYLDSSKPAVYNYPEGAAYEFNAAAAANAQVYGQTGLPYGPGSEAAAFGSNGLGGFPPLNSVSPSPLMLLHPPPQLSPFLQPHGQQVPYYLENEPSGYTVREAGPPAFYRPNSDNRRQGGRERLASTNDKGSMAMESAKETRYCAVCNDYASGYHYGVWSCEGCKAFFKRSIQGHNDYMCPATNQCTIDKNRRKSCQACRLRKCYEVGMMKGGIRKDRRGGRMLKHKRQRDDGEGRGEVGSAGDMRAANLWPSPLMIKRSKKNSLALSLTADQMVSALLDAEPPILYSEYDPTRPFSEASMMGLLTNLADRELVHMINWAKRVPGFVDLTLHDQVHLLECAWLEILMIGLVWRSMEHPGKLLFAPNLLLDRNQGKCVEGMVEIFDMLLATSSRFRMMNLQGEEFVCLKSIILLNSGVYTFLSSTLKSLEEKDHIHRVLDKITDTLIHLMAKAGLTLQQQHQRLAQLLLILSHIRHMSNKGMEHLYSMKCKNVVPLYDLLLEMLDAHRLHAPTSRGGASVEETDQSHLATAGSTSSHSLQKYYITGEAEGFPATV

ERβ = ERβ (Homo sapiens, UniProt Q92731); details: cited from earlier work
ERβ, sequence (Q92731 whole entry): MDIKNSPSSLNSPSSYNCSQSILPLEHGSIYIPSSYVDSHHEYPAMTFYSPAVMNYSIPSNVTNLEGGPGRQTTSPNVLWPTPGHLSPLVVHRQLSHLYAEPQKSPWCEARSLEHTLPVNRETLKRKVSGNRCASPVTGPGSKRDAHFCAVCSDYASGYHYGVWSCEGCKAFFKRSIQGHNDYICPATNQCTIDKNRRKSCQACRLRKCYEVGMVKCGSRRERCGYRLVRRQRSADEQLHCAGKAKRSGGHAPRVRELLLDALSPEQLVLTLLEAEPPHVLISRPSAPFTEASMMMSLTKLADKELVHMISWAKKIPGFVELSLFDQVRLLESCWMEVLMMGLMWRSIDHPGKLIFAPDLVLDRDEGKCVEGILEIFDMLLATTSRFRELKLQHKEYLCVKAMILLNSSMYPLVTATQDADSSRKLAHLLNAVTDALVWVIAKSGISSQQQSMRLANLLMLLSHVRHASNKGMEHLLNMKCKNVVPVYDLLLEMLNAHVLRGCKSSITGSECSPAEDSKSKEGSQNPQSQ

MCF7 xenograft [3] = details: MCF7 xenograft bearing mice, cited from earlier work
MCF7 xenograft [4] = details: simulation using human PK; cited from earlier work
[5] = oral dose of 160 mg daily; cited from earlier work
[6] = female, human, in vivo, 72 h
Method: (§1) Nonpregnant women scheduled for mastectomy to prevent or treat breast cancer were recruited through the Lynn Sage Comprehensive Breast Center of Northwestern Medicine. All participants were randomized to patch application to one surgical breast (per participant) or the abdominal skin. The diclofenac patch (Flector® patch, 10 cm×14 cm) is a semi-occlusive, bioadhesive patch containing 129.7 mg of diclofenac acid. After baseline evaluation, the participants were instructed on site of patch application and to replace patch every 12 h over 72 h prior to surgery.
(§2) The breast group wore the patch over the upper outer breast, with the lower inner corner of the patch at the level of the nipple (FIG. 3b). The abdominal group wore the patch on the lower abdomen on the side opposite the planned mastectomy (FIG. 3a). Participants were assessed for baseline signs/symptoms and then by telephone the second day of the treatment and on the day of surgery. All adverse events were coded using the NCI Common Terminology Criteria for Adverse Events version 4.0.
(§3) On the day of surgery, the transdermal patch was removed in the operating room prior to anesthesia and 30 mL venous blood was collected with anticoagulant K2EDTA (BD Vacutainer®, BD Hemogard™ product no. 366643). Tissue samples from the mastectomy specimen were obtained from eight predetermined locations of one breast per participant (FIG. 3b), four central/periareolar and four peripheral samples 5 cm away, at 12, 3, 6, and 9 O'clock. Each tissue sample was weighed and snap-frozen in liquid nitrogen and kept in −80° C. until analysis.
(§4) Formalin-fixed, paraffin-embedded (FFPE) samples were taken from locations adjacent to the drug assay samples, for histological evaluation of tissue composition, and were available from all subjects.
(§5) The concentrations of all the drugs used in rats and humans were determined by liquid chromatography-tandem mass spectroscopy (API 3000; AB SCIEX, Foster City, Calif., USA). […] The mobile phase was A: 0.1% formic acid in water (v/v) and B: 0.1% formic acid in acetonitrile (v/v). […] The lowest limits of quantification (LLOQ) were as follow: tamoxifen and N-desmethyl tamoxifen (NDT) (plasma 10 ng/mL; tissue 40 ng/g); 4-OHT and endoxifen (plasma 0.5 ng/mL; tissue 2 ng/g); telapristone and N-desmethyl telapristone (d-telapristone) (plasma 1 ng/mL; tissue 1.5 ng/g); and diclofenac (plasma 0.5 ng/mL; tissue 2 ng/g).
(§6) The medians and IQR's were reported for diclofenac concentrations by breast region and patch groups (Table 9). To compare breast concentrations by site of patch application, we replaced non-detectable values with “zero” and considered the median concentration from eight samples as the representative breast concentration per individual for statistical purposes. The Wilcoxon rank-sum test was used to assess median concentration differences between patch groups, among regions of the breast, and by menopausal status within each treatment group.
(§7) Diclofenac was determined by LC-MS/MS (API 3000; AB SCIEX, Foster City, Calif.).

clinical = details: female, human, in vivo
Method: as §1, §2, §3, §4, §5, §6, §7

NAF concentration of NDT, individual participants [1]: undetectable
NAF concentration of endoxifen [1]: undetectable
NAF concentration of tamoxifen, individual participants [1]: undetectable
participants with 4-OHT detectable in breast tissue [1]: 9 of 10
participants with 4-OHT detectable in plasma [1]: 5
breast adipose tissue concentrations of (Z) 4-OHT (discussion) ([1]; po): over 5 ng/mg
Compound: 4-hydroxytamoxifen [4-OHT gel]

Compound: CC/C(=C(\c1ccc(O)cc1)c1ccc(OCCNC)cc1)c1ccccc1.O=C(O)CC(O)(CC(=O)O)C(=O)O [ENX citrate]
efficacy against MCF-7 xenograft model (MCF-7 xenograft): shows efficacy

Compound: CC/C(=C(\c1ccc(O)cc1)c1ccc(OCCNC)cc1)c1ccccc1 [Endoxifen, N-desmethyl-4-hydroxytamoxifen]
in vitro human skin penetration [2]: penetrates human skin efficiently
binding affinity for ERα relative to TAM (ERα): 25 fold
binding affinity for ERβ relative to TAM (ERβ): 56 fold
Cstasis (plasma ENX showing 100% TGI) (MCF7 xenograft [3]): 53 nM
KC50 of plasma ENX (MCF7 xenograft [3]; tumor growth inhibition, oral ENX): 14 nM
TGI at day 21, 0.5 mg/day oral (MCF7 xenograft [4]): 67%
TGI at day 21, 1 mg/day oral (MCF7 xenograft [4]): 87%
TGI at day 21, 4 mg/day oral (MCF7 xenograft [4]): 97%
MTT [5]: not reached

diclofenac breast concentration, abdominal patch, All locations [6]: 0.13 (0.00, 0.37) ng/g tissue
diclofenac breast concentration, abdominal patch, sampling location 6 [6]: 0.04 (0.00, 0.48) ng/g tissue
diclofenac breast concentration, breast patch, All locations [6]: 0.77 (0.23, 2.97) ng/g tissue
diclofenac breast concentration, breast patch, sampling location 6 [6]: 0.31 (0.00, 1.23) ng/g tissue
diclofenac plasma concentration, abdominal patch [6]: 1.06 (0.81, 1.88) ng/mL
diclofenac plasma concentration, breast patch [6]: 1.02 (0.71, 1.78) ng/mL
tissue samples with detectable diclofenac, abdominal group [6]: 58%
tissue samples with detectable diclofenac, breast group [6]: 79%
concentration at 72 h (clinical; diclofenac breast concentration, abdominal patch, All locations): 0.13 ng/g
concentration at 72 h (clinical; diclofenac breast concentration, abdominal patch, sampling location 1): 0 ng/g
concentration at 72 h (clinical; diclofenac breast concentration, abdominal patch, sampling location 2): 0.18 ng/g
concentration at 72 h (clinical; diclofenac breast concentration, abdominal patch, sampling location 3): 0.2 ng/g
concentration at 72 h (clinical; diclofenac breast concentration, abdominal patch, sampling location 4): 0.19 ng/g
concentration at 72 h (clinical; diclofenac breast concentration, abdominal patch, sampling location 5): 0.11 ng/g
concentration at 72 h (clinical; diclofenac breast concentration, abdominal patch, sampling location 6): 0.04 ng/g
concentration at 72 h (clinical; diclofenac breast concentration, abdominal patch, sampling location 7): 0.14 ng/g
concentration at 72 h (clinical; diclofenac breast concentration, abdominal patch, sampling location 8): 0.08 ng/g
concentration at 72 h (clinical; diclofenac breast concentration, breast patch, All locations): 0.77 ng/g
concentration at 72 h (clinical; diclofenac breast concentration, breast patch, sampling location 1): 0.63 ng/g
concentration at 72 h (clinical; diclofenac breast concentration, breast patch, sampling location 2): 0.64 ng/g
concentration at 72 h (clinical; diclofenac breast concentration, breast patch, sampling location 3): 0.48 ng/g
concentration at 72 h (clinical; diclofenac breast concentration, breast patch, sampling location 4): 1.64 ng/g
concentration at 72 h (clinical; diclofenac breast concentration, breast patch, sampling location 5): 1.98 ng/g
concentration at 72 h (clinical; diclofenac breast concentration, breast patch, sampling location 6): 0.31 ng/g
concentration at 72 h (clinical; diclofenac breast concentration, breast patch, sampling location 7): 1.12 ng/g
concentration at 72 h (clinical; diclofenac breast concentration, breast patch, sampling location 8): 0.58 ng/g
concentration at 72 h (clinical; diclofenac plasma concentration, abdominal patch): 1.06 ng/mL
concentration at 72 h (clinical; diclofenac plasma concentration, breast patch): 1.02 ng/mL
concentration at 72 h (clinical; median breast concentration of diclofenac with IQR, fatty samples): 8.71 ng/g
concentration at 72 h (clinical; median breast concentration of diclofenac with IQR, fibrous samples): 0.19 ng/g
concentration at 72 h (clinical; median breast concentration of diclofenac with IQR, mixed samples): 0.52 ng/g
concentration at 72 h (clinical; median diclofenac breast concentration, abdominal group, medium-sized breasts): 0.21 ng/g
concentration at 72 h (clinical; median diclofenac breast concentration, abdominal group, small breasts): 0.6 ng/g
concentration at 72 h (clinical; median diclofenac breast concentration, breast group, medium-sized breasts): 1.31 ng/g
concentration at 72 h (clinical; median diclofenac breast concentration, breast group, small breasts): 1.12 ng/g
concentration at 72 h (clinical; median diclofenac concentration, central locations (1 through 4), abdominal group): 0.85 ng/g
concentration at 72 h (clinical; median diclofenac concentration, central locations (1 through 4), breast group): 4.91 ng/g
concentration at 72 h (clinical; median diclofenac concentration, peripheral locations (5 through 8), abdominal group): 0.75 ng/g
concentration at 72 h (clinical; median diclofenac concentration, peripheral locations (5 through 8), breast group): 9.92 ng/g
concentration at 72 h (clinical; range of diclofenac concentrations in tissue samples of three women, abdominal group): 1.2 to 4.8 ng/g
Compound: O=C(O)Cc1ccccc1Nc1c(Cl)cccc1Cl [diclofenac]
